How the values were obtained:
[1] = system: healthy LCLs; assay: LCLs survival assay (XTT), healthy LCLs; type: cell-based, human; conditions: adenosine 300 μg/ml
Description: (§1) 24 hours after seeding in 96 round bottom plates in full medium cells were washed once with medium without serum and placed in medium without serum. Following 72 hours of incubation with or without Adenosine (200 ug/ml) and with or without purpurin (2 uM), XTT based cell viability assay was performed. Absorbance was measured with Tecan™ SPARK 10M plate reader.
(§2) In order to assess the toxic effect of adenosine aggregates, XTT based cell viability assays were performed on healthy and ADA deficient LCLs. Cells went through similar procedure as described above except adenosine was at 300 μg/ml. Survival percentage was calculated as absorbance with adenosine divided by absorbance without adenosine. […] Moreover. 4 out of 5 ADA deficient cell lines display less than 20% survival (FIG. 15B cell lines 7,8,9,11,12).

[2] = system: adenosine aggregates in ADA deficient LCLs; assay: Aggregation assay (Proteostat, FACS) on ADA deficient LCLs; type: cell-based, human; conditions: for formation of adenosine aggregates (aggregation level, Proteostat staining): patient derived lymphoblastoids, 19 concentrations from 50 μM to 0.003 μM
Description: 24 hours after seeding in full medium cells were washed with medium without serum and placed in medium without serum. Following 72 hours of incubation with or without Adenosine (A9251 SIGMA) (200 ug/ml), cells were washed with PBS and stained for adenosine aggregates with Proteostat dye (ENZ-51023-KP002). Proteostat concentration was 1:3000 of diluted stock. Following 15 minutes' incubation, cells were washed with PBS and mean fluorescence was measured with FACS.
Cells were treated with adenosine alone or with adenosine with compounds. Compound activity was tested in 19 concentrations in range from 50 uM to 0.003 uM.
Readouts: Proteostat Fluorescence intensity was measured with FACS at 2 excitation wavelengths: 488 nm and 550 nm. Emission wavelength was 600 nm.
24 hours after seeding in 96 round bottom plates in full medium cells were washed once with medium without serum and placed in medium without serum. Following 72 hours of incubation with or without Adenosine (200 ug/ml) and with or without purpurin (2 uM), cells were washed once with PBS and stained for adenosine aggregates with Proteostat dye (Enzo Life Sciences). Proteostat concentration was 1:4000 of diluted stock. Following 15 minutes incubation, cells were washed with PBS and mean flow cytometry was preformed using Stratedigm S1000EXi and the CellCapTure software (Stratedigm, San Jose, Calif.). Analyses were performed using FlowJo software (TreeStar, version 10).
For quantification of intracellular adenosine aggregates by FACS analyses, 100,000 cells were seeded in 96 well plates in full medium. After 24 hours, cells were centrifuged, washed once and added with serum free medium with or without Adenosine (200 μg/ml). After incubation of 72 hours cells were washed with PBS and stained for adenosine aggregates with Proteostat dye. Following 15 minutes incubation, cells were washed with PBS and mean fluorescence was measured with FACS. Mean cell fluorescence of every cell line was normalized to its signal without adenosine and data is presented as percentage of aggregates.

[3] = system: ADA deficient LCLs; assay: LCLs survival assay (XTT), ADA deficient LCLs; type: cell-based, human
Description: as §1, §2

[4] = system: adenine fibrils; assay: ThT assay of adenine self-assembly inhibition in vitro; conditions: adenine 8 mg/ml in PBS with inhibitor
Description: Adenine was dissolved at 90° C. in PBS to a final concentration of 8 mg/ml and mixed with the indicated inhibitor, at the indicated concentrations, or with PBS as a control, followed by addition of ThT in PBS. ThT emission data at 480 nm (excitation at 450 nm) were measured at the end point.
Adenine was dissolved to a final concentration of 8 mg/ml at 90° C. in PBS. The solution was plated on a 96-well black plate and mixed with the inhibitor baicalein at the stated concentration, and with 20 μm ThT (final concentration). Fluorescence (excitation at 450 nm, emission at 480 nm) was recorded over time using a Tecan™ Infinite® 200 PRO plate reader. Data processing was performed using the OriginLab software.
To further examine if the compounds specifically target the adenosine amyloid-like structures. the compounds were tested using adenine in-vitro aggregation assay. Adenine was self-assembled with and without the inhibitors and stained with the amyloids dye, Thioflavin T (ThT). […] More specifically. Adenosine (30 mg/mL) and guanosine (3 mg/ml) were dissolved in PBS at 90° C., followed by the addition of ThT at final concentration of 20 μM. ThT emission data at 480 nm (excitation at 450 nm) was measured over time. TEM images show elongated adenosine fibrils (10 mg/mL) and guanosine fibrils (1 mg/mL) (FIGS. 34A and 34B, respectively). ThT fluorescence assay of adenosine and guanosine assemblies, are shown by FIGS. 34C, and 34D respectively.

[5] = system: mutant yeast strain; assay: IC50 assay in yeast, rescue from adenine toxicity (HTS growth format); type: cell-based; conditions: Saccharomyces cerevisiae, 22 h, read-out: IC50, rescuing mutant yeast strain from adenine toxicity
Description: Yeast strains were grown over night at 30° C. in SD medium without adenine and were diluted to OD600 0.005. 80 μL of cells were platted on 384 wells plates and incubated at 30° C. for 22 hours with continuous shaking. OD600 was measured using Tecan™ SPARK 10M plate reader.
Yeast strains were diluted to OD600 0.005. 80 μL of cells were platted on 384 wells plates. Compounds were added with Tecan™ D300 printer at relevant concentrations and plates were incubated at 30° C. for 22 hours with continuous shaking. OD600 was measured using Tecan™ SPARK 10M plate reader. IC50 calculations were performed with CDD software.
The high-throughput screening was calibrated for 384 plate format using phenotypic assay based on yeast growth rate (measured by OD). The goal was to find hit compounds that will dramatically improve the growth rate as compared to the salvage mutant in the presence of adenine. All relevant controls were used including: mutant yeast grown without adenine addition, WT yeast, and mutant yeast in the presence of adenine with Prazosin as a positive control compound. Potential hits were selected after calculations of growth curve slopes and area under the curve during the logarithmic phase. After hit validation and dose response experiments, hits displaying low IC50 rates were selected implying on a good potential for some of the compounds (FIG. 14).

[6] = system: wild-type strain; assay: Yeast growth assay of wild-type strain; type: cell-based, Saccharomyces cerevisiae; conditions: 13 mg/L cysteine, 80 mg/L homocysteine, 0.3 mM TA
Description: (§3) Strains were grown over night at 30° C. in SD medium without adenine. For spotting assays, strains were diluted to 6.25*10^7 cells/mL and were then 5-fold serially diluted and spotted on SD media with the indicated concentrations of adenine or TA (Sigma-Aldrich). Plates were incubated at 30° C. for 2 days. […] For OD600 measurements, strains were diluted to OD600 0.01, 200 μL of cells were platted on 96 wells plates and incubated at 30° C. for 25 hours with continuous shaking. OD600 was measured using Tecan™ SPARK 10M plate reader.

[7] = system: aah1Δapt1Δ strain; assay: Yeast growth assay of adenine salvage mutant with adenine feeding; type: cell-based, Saccharomyces cerevisiae
Description: as §3
For the percentage of growth analysis (FIG. 10B and FIG. 13A), OD600 was measured when cells reached log phase. The percentage of growth represents the growth with TA compared to the growth without TA.

[8] = system: adenine aggregation in aah1Δapt1Δ cells; assay: Flow cytometry with ProteoStat staining of salvage mutant; type: cell-based, Saccharomyces cerevisiae; conditions: adenine in media, TA 0.5 mM
Description: An amount of 1 mL of logarithmic cells were washed with PBS buffer and sonicated using 15 s pulses at 20% power. For each sample, 2*10^6 cells were resuspended with ProteoStat dye (Enzo Life Sciences) diluted 1:3000 in ProteoStat assay buffer. Cells were incubated for 15 min at room temperature protected from light. Flow cytometry was preformed using Stratedigm S1000EXi and the CellCapTure software (Stratedigm, San Jose, Calif.). Live cells were gated (P1) by forward scatter and side scatter. Fluorescence channels for FITC (530/30) and PE-Cy5 (676/29) were used utilizing a 488 nm laser source. A total of 50,000 events were acquired for each sample. Analyses were performed using FlowJo software (TreeStar, version 10).

[9] = system: adenine fibrils; conditions: previously demonstrated, reference [4]; cited from earlier work
[10] = system: aah1Δapt1Δ cells; assay: Confocal microscopy with ProteoStat staining of salvage mutant; type: cell-based, Saccharomyces cerevisiae; conditions: adenine in media, TA 0.5 mM
Description: An amount of 1 mL of logarithmic cells were washed with PBS buffer, sonicated using 15 s pulses at 20% power and resuspended in 50 μL of ProtesoStat dye diluted 1:250 in ProteoStat assay buffer. Cells were incubated for 15 min at room temperature protected from light. 10 μL of each sample was deposited on poly-lysine coated glass slides (Sigma-Aldrich). Cells were imaged using Leica TCS SP8 laser confocal microscope with 63×1.4 NA or 100*1.4 NA oil objectives. To visualize the nuclei, Hoechst (33342; ImmunoChimestry) was used. An argon laser with 488 excitation line was used for ProteoStat (emission wavelength, 500 to 600 nm), and a 405 UV laser was used to excite Hoechst fluorescence (emission wavelength, 415 to 450 nm).

[11] = system: cys4Δ strain; assay: Yeast growth assay of cys4Δ mutant with homocysteine; type: cell-based, Saccharomyces cerevisiae; conditions: 13 mg/L cysteine, 80 mg/L homocysteine, 0.3 mM TA
Description: FIG. 27E: WT and cys4Δ strains diluted to OD600 0.01 were grown in SD media containing 13 mg/L cysteine and 80 mg/L homocysteine in the under the indicated conditions. 0.3 mM TA was added to the samples at different OD600. The percentage of growth represents the growth the indicated condition compared to the growth of WT without TA. *P<0.05 (Student's t-test).
Homocystinuria results from cystathionine beta synthase (CBS) deficiency, leading to excess of Hcy. A knockout mutation in CYS4, the highly-conserved functional yeast ortholog of the human cystathionine beta synthase (CBS) known to be essential for Hcy salvage, was therefore generated. Due to the contribution of this enzyme to cysteine biosynthesis, it was first shown that its absence confers cysteine dependence (FIG. 27A). […] To examine whether the observed toxicity was associated with the in vivo formation of amyloid-like assemblies, the cells were stained with the amyloid-specific fluorescent dye ProteoStat which allows to detect intracellular amyloid fibrils. […] Next, to further establish the amyloid-like nature of the aggregates, the fibrillation-modifying polyphenolic compound tannic acid (TA) was used (FIG. 27E).

[12] = system: aah1Δapt1Δ cells; assay: LC-MS detection of TA and adenine inside cells; type: cell-based, Saccharomyces cerevisiae; conditions: cells grown in SD medium containing adenine and TA
Description: 100 ml of cells at the logarithmic phase were centrifuged and washed three times with PBS. 1 ml of the growth medium and of each wash were collected for LC-MS analysis. After the third wash, the pellet was resuspended in PBS together with acid-washed glass beads. Tubes were vortexed for 45 minutes in 4° C. using disruptor-genie. Cell debris and soluble material were separated by centrifugation. Both fractions as well as the medium and washes were analyzed by MS. The pellet was resuspended in 200 μl DMSO, heated for 5 minutes at 85° C. and sonicated for 5 minutes at 40° C. The lysis mixture was centrifuged at 6000 rpm for 10 minutes. 150 μl of the lysate were transferred to a Waters 96 well ACQUITY collection plate for LC-MS analysis. 20 μl of each sample were injected to Waters Autopurification system analytical module equipped with SQD2 MS detector at the following conditions: a. LC: Waters XSelect Peptide CSH C18 column (5 μm, 4.6 mm×100 mm) using a 10 minute gradient from 95:5 Water:acetonitrile (both with 0.1% formic acid) to acetonitrile (0.1% formic acid); b. MS: acquisition parameters were optimized in order to select the proper ion for selected ion monitoring (SIR) experiments.

[13] = system: phenylalanine assemblies; conditions: reference [4]; cited from earlier work

Nc1ncnc2c1ncn2[C@@H]1O[C@H](CO)[C@@H](O)[C@H]1O [adenosine, Adenosine]
survival of healthy LCLs in the presence of adenosine [1]: above 70% | Proteostat staining of ADA deficient LCLs compared to healthy LCLs ([2]; adenosine 200 μg/ml, 72 hours): 2-3 fold | survival of ADA deficient LCLs in the presence of adenosine ([3]; adenosine 300 μg/ml, XTT): below 40% | survival, 4 out of 5 ADA deficient cell lines ([3]; adenosine 300 μg/ml, XTT): less than 20%

O=C1c2ccccc2C(=O)c2c(O)c(O)cc(O)c21 [Purpurin, 1,2,4-trihydroxyanthracene-9,10-dione]
Proteostat staining of adenosine aggregates ([2]; 2 μM Purpurin, adenosine 200 μg/ml, 72 hours): reduced to significantly lower levels | formation of adenosine aggregates (aggregation level, Proteostat staining) [2]: significantly reduce the aggregation level | formation of adenosine aggregates (aggregation level, Proteostat staining) ([2]; listed as purpurin): inhibited the formation of these aggregates | amyloids staining (ThT, end point) [4]: significantly reduced the amyloids staining | cell viability (XTT) ([3]; 2 μM Purpurin, with adenosine, 72 hours, vs control LCLs): substantial improvement in cell viability | IC50 [5]: 14.4 nM

O=C(OC[C@H]1O[C@@H](OC(=O)c2cc(O)c(O)c(OC(=O)c3cc(O)c(O)c(O)c3)c2)[C@H](OC(=O)c2cc(O)c(O)c(OC(=O)c3cc(O)c(O)c(O)c3)c2)[C@@H](OC(=O)c2cc(O)c(O)c(OC(=O)c3cc(O)c(O)c(O)c3)c2)[C@@H]1OC(=O)c1cc(O)c(O)c(OC(=O)c2cc(O)c(O)c(O)c2)c1)c1cc(O)c(O)c(OC(=O)c2cc(O)c(O)c(O)c2)c1 [TA, Tannic acid]
growth of wild-type strain [6]: no effect was observed | formation of adenine amyloid-like assemblies / growth, inhibitor added at earlier time points ([7]; 0.5 mM TA added at earlier time points of yeast growth): hinder the formation of adenine amyloid-like assemblies | growth, inhibitor added at later stages ([7]; 0.5 mM TA added at later stages of yeast growth): no effect on their growth | cell growth of the salvage mutant ([7]; in the presence of adenine, TA added to the yeast media at various concentrations): clearly improved cell growth of the salvage mutant in a dose-dependent manner | metabolite aggregation (ProteoStat, flow cytometry) [8]: decrease in metabolite aggregation | adenine self-assembly in vitro [9]: inhibition of adenine self-assembly in vitro | ProteoStat stained dots (confocal microscopy) [10]: absence of the stained dots | growth inhibition of the salvage mutant strain in the presence of Hcy [11]: significantly ameliorated the growth inhibition | presence inside the cell (LC-MS) [12]: detected inside the cell | phenylalanine aggregation and cytotoxicity of the assemblies in vitro [13]: counteract
